Structures are written as SMILES. Read-outs that look alike come from different tables or passages of the source.

From US3984431A, “Derivatives of pyrazole-5-acetic acid” (priority 1972, dated 1976) come the findings set out here.

Assay [1] deals with Brewer's yeast induced pyrexia. In words: Antipyretic action: Brewer's yeast induced pyrexia (Bianchi). The note with it: read-out: 50% effective dose. The format is in vivo, rat. The text has this:
Antipyretic action was established on the pyretic rat by the Bianchi method.
(§1) In all cases the products of the invention are compared to the following reference substances, aspirin, phenylbutazone, indomethacine.

Assay [2] deals with Pain (cramp) caused by acetic acid. In words: Analgesic action: pain (cramp) caused by acetic acid in the mouse (Siegmund). Format: in vivo. The note with it: for ED50: sc, read-out: 50% effective dose. The procedure:
The analgesic action was tested in relation to the pain caused in the mouse by the subcutaneous injection of acetic acid.
as §1

In assay [3] the test system is Ultra-violet induced erythema. In words: Anti-inflammatory action: ultra-violet induced erythema (Winter). The note with it: Cavia porcellus, read-out: 50% effective dose. Format: in vivo, guinea-pig.
Excerpt: 2. Ultra-violet induced erythema; method of Winter Arch. intern.
as §1

Assay [4] has as its system Carragheen induced oedema. Nature of the assay: Anti-inflammatory action: carragheen induced oedema (Winter). The format is in vivo, rat. As to conditions: read-out: 50% effective dose.
Excerpt: 1. Carragheen induced odema; method of Winter Arch. intern.
as §1

The subject of assay [5] is Cotton pellet granulema. Nature of the assay: Anti-inflammatory action: cotton pellet granuloma (Winter). Format: in vivo, rat. As to conditions: read-out: 50% effective dose.
Excerpt: as §1

The nature of assay [6]: Overall appraisal of anti-inflammatory, antipyretic and analgesic tests versus reference substances. Format: in vivo. The note with it: for overall activity compared with example 5 (in words): compared to example 5; for overall activity compared with phenylbutazone (in words): compared to phenylbutazone. How it is done: 1. Carragheen induced odema; method of Winter Arch. intern. Pharmacod. volume 112, page 174 (1957)
2. Ultra-violet induced erythema; method of Winter Arch. intern. Pharmacod. volume 114, page 261 (1958)
3. The formation of granulomae caused by the sub-cutaneous implantation of pellets of cotton in the rat; method of Winter Journal of the American Pharmaceutical Association, Science Edition, Volume 46, page 515 (1957)
The analgesic action was tested in relation to the pain caused in the mouse by the subcutaneous injection of acetic acid. Method based upon that of Siegmund, Proceedings of the Society of Experimental Biology and Medicine, volume 75, page 729 (1957)
Antipyretic action was established on the pyretic rat by the Bianchi method. Arzneimittel Forschung, volume 17, page 246 (1967)
as §1

[7] abbreviates: mouse, acetic acid injected subcutaneously.
Setting [8] is: rat, oral administration, sub-cutaneous implantation of cotton pellets.
Where [9] appears, read: guinea-pig, oral administration.

For `CC(=O)Oc1ccccc1C(=O)O` [ASPIRIN, aspirin, reference compound], the ED50 was determined as 30 mg/kg in assay [1] (Rattus norvegicus); 130 mg/kg in assay [2] (Mus musculus); 50 mg/kg in assay [3] (po); 180 mg/kg in assay [4] (Rattus norvegicus, po).

Consider `O=C(O)Cc1c(-c2ccccc2)c(-c2ccccc2)nn1Cc1ccccc1` [Example 1, 1-benzyl-3,4-diphenylpyrazolyl-5-acetic acid], for which the ED50 in assay [1] (pyretic rat) came out at 1 mg/kg; in assay [2] (setting [7]) it was 150 mg/kg; in assay [5] (setting [8]), 80 mg/kg; in assay [3] (setting [9]) it was 1.6 mg/kg; in assay [4] (rat, oral administration) it was 60 mg/kg. The “overall activity compared with example 5 (in words)” value in assay [6] is given as “active substances, although slightly less so than example 5”.

Take `CC(C)Cn1nc(-c2ccccc2)c(-c2ccccc2)c1CC(=O)O` [Example 3, 1-isobutyl-3,4-diphenylpyrazolyl-5-acetic acid]: the ED50 in assay [1] (pyretic rat) was found to be 0.5 mg/kg; in assay [2] (setting [7]), 180 mg/kg; in assay [5] (setting [8]) it was 18 mg/kg; in assay [3] (setting [9]) it was 1 mg/kg; in assay [4] (rat, oral administration), 30 mg/kg. Further, the “overall activity compared with example 5 (in words)” value in assay [6] is “active substances, although slightly less so than example 5”. Besides, the “overall activity compared with phenylbutazone (in words)” value in assay [6] is listed as “still more powerful than phenylbutazone”.

Regarding `O=C(O)Cc1c(-c2ccccc2)c(-c2ccccc2)nn1-c1ccccc1` [Example 5, 1,3,4-triphenylpyrazolyl-5-acetic acid], the ED50 in assay [1] (pyretic rat) was found to be 0.6 mg/kg; in assay [2] (setting [7]), 90 mg/kg; in assay [5] (setting [8]) it was 6 mg/kg; in assay [3] (setting [9]), 3 mg/kg; in assay [4] (rat, oral administration), 14 mg/kg. Moreover, in assay [2] (from the table), the “analgesic effect (in words)” value is “marked analgesic effect”. In assay [6] (compared to indomethacine), the “overall activity compared with indomethacine (in words)” value is recorded as “at least equivalent to indomethacine”. Besides, in assay [6], the “overall activity compared with phenylbutazone (in words)” value is recorded as “much more powerful than phenylbutazone”. In assay [6] (from the table), the “anti-inflammatory and anti-pyretic activity (in words)” value is “powerful anti-inflammatory and anti-pyretic agent”.

Regarding `COc1ccc2c(c1)c(CC(=O)O)c(C)n2C(=O)c1ccc(Cl)cc1` [INDOMETHACINE, indomethacine, reference compound], the ED50 in assay [1] (Rattus norvegicus) amounted to 1.3 mg/kg; in assay [2] (Mus musculus), 5.5 mg/kg; in assay [5] (Rattus norvegicus, po), 8 mg/kg; in assay [3] (po), 1.5 mg/kg; in assay [4] (Rattus norvegicus, po), 14 mg/kg.

Turning to `CCCCC1C(=O)N(c2ccccc2)N(c2ccccc2)C1=O` [PHENYLBUTAZONE, phenylbutazone, reference compound], the ED50 in assay [1] (pyretic rat) was 10 mg/kg; in assay [2] (setting [7]) it was 110 mg/kg; in assay [5] (setting [8]), 200 mg/kg; in assay [3] (setting [9]) it was 8.5 mg/kg; in assay [4] (rat, oral administration) it was 120 mg/kg.
